Test results as given in patent US20200087248A1, “Fluoroallylamine Derivative And Use Thereof” (SICHUAN KELUN-BIOTECH BIOPHARMACEUTICAL CO., LTD., priority 2017, published 2020).
Where a name gives a salt, the structure may show the parent alone.

Assays:
[1] = target: T1, hERG (Homo sapiens, UniProt Q12809); assay: hERG fluorescence polarization inhibition experiment; conditions: hERG cell membrane, 25° C. 2 hours, read-out: hERG (IC50 range, competitive binding vs tracer)
T1 construct: purchased ThermoFisher; host or cells: hERG cell membrane supplied with the kit
Protocol: hERG (Ether-a-go-go-related Gene Potassium Channel) Inhibition Experiment
Reagent: Predictor™ hERG Fluorescence Polarization Assay Kit, Manufacturer: ThermoFisher
The above test kit was used to evaluate the potential of the compound for inducing heart QT prolongation. According to the method as indicated in the specification of the test kit, the test compound, the positive control (E4031) and negative control (Experimental buffer solution) in the kit were added to a microwell plate containing hERG cell membrane, and then a tracer having high affinity to hERG was added. The microwell plate was then incubated at 25° C. for 2 hours, a BMG PHAREStar polyfunctional enzyme marker was used to test the variations in the fluorescent polarization value. By calculating the percent inhibition rates (%) at different concentrations, the range of the half inhibition concentration (IC50) was determined:
Percent inhibition rate (%)=(1-(mP of the test compound-mP of 30 μM E4031)/(mP of experimental buffer solution-mP of 30 μM E4031))*100.

[2] = target: T2, VAP-1 (Homo sapiens, UniProt Q16853); assay: Inhibition of the enzymatic activity of VAP-1 in vitro (Amplex Red); type: biochemical; conditions: VAP-1 protein about 20 nM, 10 min pre-incubation, benzylamine substrate; read-out: IC50, inhibition against the enzymatic activity of VAP-1
T2 construct: purchased R&D Systems
T2 sequence (Q16853 1-763): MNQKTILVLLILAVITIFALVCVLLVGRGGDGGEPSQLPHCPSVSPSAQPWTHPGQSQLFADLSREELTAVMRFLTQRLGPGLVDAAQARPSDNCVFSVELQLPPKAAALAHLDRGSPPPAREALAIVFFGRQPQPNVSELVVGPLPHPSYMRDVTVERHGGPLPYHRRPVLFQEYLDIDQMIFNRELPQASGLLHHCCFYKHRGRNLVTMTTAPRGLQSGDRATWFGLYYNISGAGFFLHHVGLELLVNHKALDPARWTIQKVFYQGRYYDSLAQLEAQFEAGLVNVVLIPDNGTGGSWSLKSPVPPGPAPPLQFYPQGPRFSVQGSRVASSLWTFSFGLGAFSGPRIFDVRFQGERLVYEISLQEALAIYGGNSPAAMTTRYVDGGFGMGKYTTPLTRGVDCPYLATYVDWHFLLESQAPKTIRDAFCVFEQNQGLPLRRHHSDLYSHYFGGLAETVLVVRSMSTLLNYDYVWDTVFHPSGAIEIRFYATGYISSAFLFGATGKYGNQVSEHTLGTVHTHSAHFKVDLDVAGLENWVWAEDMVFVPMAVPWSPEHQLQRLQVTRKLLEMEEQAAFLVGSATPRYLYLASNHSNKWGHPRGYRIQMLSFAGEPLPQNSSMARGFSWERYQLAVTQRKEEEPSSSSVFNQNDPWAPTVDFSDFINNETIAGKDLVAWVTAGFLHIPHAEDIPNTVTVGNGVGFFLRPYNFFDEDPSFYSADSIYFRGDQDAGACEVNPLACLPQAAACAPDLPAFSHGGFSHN
Protocol: Inhibition Experiment Against the Enzymatic Activity of VAP-1(Vascular Adhesion Protein 1) in vitro
Test kit: Amplex® Red Monoamine Oxidase Assay, Manufacturer: ThermoFisher
Reaction buffer solution: 50 mM PBS, pH 7.4
Enzyme: VAP-1, Manufacturer: R&D Systems
VAP-1 protein (about 20 nM) and different concentrations of the test compound were pre-incubated at room temperature for 10 minutes, followed by an addition of […] benzylamine hydrochloride, 1 U/mL HRP and 200 μM Amplex Red reagent according to the specification of the test kit to start the reaction. The reaction plate was placed in the enzyme marker, and in kinetic mode, fluorescence signals were measured at Ex/Em=540/590 nm. The relative inhibition activity of each concentration group was calculated, wherein the ratio (slope) of fluorescence signal to reaction time in the linear range is the reaction rate, the vehicle group (DMSO) is the negative control, and the reaction buffer solution group (without enzymes and the compounds) is the blank control. The half inhibition concentration (IC50) of the compound was calculated according to four-parameter model fitting curve.

T1 sequence (Q12809 whole entry): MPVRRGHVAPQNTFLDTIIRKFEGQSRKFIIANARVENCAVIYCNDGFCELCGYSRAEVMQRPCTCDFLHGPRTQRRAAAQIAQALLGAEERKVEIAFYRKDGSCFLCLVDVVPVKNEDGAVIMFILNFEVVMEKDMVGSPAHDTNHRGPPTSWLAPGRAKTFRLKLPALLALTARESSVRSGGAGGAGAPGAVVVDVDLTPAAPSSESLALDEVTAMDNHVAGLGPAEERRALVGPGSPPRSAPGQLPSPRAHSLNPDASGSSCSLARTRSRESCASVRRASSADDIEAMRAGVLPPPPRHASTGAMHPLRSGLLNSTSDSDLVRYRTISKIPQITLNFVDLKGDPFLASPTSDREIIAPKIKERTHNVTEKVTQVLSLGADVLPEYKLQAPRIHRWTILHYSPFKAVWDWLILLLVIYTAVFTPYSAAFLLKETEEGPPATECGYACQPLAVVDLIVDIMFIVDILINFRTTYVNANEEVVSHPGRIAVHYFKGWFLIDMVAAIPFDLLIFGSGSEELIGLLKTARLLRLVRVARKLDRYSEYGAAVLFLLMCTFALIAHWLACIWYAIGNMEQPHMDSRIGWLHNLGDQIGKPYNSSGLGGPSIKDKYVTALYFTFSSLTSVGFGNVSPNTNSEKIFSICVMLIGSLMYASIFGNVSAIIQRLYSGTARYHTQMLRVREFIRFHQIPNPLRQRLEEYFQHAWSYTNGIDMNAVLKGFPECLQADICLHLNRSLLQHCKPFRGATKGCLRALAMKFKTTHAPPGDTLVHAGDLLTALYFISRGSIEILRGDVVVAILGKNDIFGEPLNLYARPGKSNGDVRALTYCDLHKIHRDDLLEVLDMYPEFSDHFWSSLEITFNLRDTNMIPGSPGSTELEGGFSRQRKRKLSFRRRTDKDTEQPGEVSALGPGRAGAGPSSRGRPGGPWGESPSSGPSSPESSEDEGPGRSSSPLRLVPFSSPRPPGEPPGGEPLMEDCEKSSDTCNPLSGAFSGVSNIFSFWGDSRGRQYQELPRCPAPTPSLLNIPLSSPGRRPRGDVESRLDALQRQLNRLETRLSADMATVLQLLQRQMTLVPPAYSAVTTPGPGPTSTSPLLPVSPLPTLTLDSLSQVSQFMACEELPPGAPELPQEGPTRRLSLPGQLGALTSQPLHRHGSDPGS

| Compound | IC50 [1] | IC50 [2] |
| --- | --- | --- |
| NCC(=CF)COc1ccc(C(=O)Nc2ccccc2)cc1 [TM1, N-phenyl-4-((2-aminomethyl-3-fluoroallyl)oxy)-benzamide trifluoroacetate] | > 10 µM | 0.5 nM |
| NCC(=CF)COc1ccc(C(=O)Nc2cccc3ccccc23)cc1 [TM8, 4-((2-(aminomethyl)-3-fluoroallyl)oxy)-N-(naphthyl)benzoamide trifluoroacetate] | – | 2.2 ± 0.1 nM |
| NC/C(=C\F)COc1ccc2c(c1)CCNC2=O [TM26-E, (E)-6-((2-aminomethyl-3-fluoroallyl)oxy)-3,4-dihydroisoquinolin-1(2H)-one trifluoroacetate] | > 10 µM | 9.9 ± 1.2 nM |
| NC/C(=C\F)COc1ccc2c(c1)CN(Cc1ccc(Cl)cc1)C2=O [TM33-E, (E)-5-((2-aminomethyl-3-fluoroallyl)oxy)-2-(4-chlorobenzyl)isoindolin-1-one] | > 10 µM | 4.9 ± 0.5 nM |
| NC/C(=C/F)COc1ccc2c(c1)CN(Cc1ccc(Cl)cc1)C2=O [TM33-Z, (Z)-5-((2-aminomethyl-3-fluoroallyl)oxy)-2-(4-chlorobenzyl)isoindolin-1-one] | – | 6.3 ± 1.2 nM |
| NCC(=CF)COc1ccc(-c2ncccn2)cc1 [TM39, 2-(4-(2-pyrimidyl)phenoxymethyl)-3-fluoroallylamine trifluoroacetate] | > 30 µM | 1 ± 0.1 nM |
| NC/C(=C\F)COc1ccc(-c2nc3ccc(Cl)cc3s2)cc1 [TM41-E, (E)-2-(4-(6-chloro-benzothiazol-2-yl)phenoxymethyl)-3-fluoroallylamine trifluoroacetate] | – | 3.1 ± 0.5 nM |
| NC/C(=C/F)COc1ccc(-c2nc3ccc(Cl)cc3s2)cc1 [TM41-Z, (Z)-2-(4-(6-chloro-benzothiazol-2-yl)phenoxymethyl)-3-fluoroallylamine trifluoroacetate] | – | 3.5 ± 0.4 nM |
| NC/C(=C/F)COc1ccc(-c2nc3ccccc3[nH]2)cc1 [TM42-Z, (Z)-2-(4-(1H-benzoimidazol-2-yl)phenoxymethyl)-3-ftuoroallylamine trifluoroacetate] | > 10 µM | 1.5 ± 0.1 nM |
| NC/C(=C\F)COc1ccc(C(=O)N2CCC(c3ccccc3)CC2)cc1 [TM44-E, (E)-(4-((2-aminomethyl-3-fluoroallyl)oxy)phenyl)-(4-phenylpiperidine-1-yl) methanone trifluoroacetate] | – | 12.9 ± 4.4 nM |
| NC/C(=C/F)COc1ccc(C(=O)N2CCC(c3ccccc3)CC2)cc1 [TM44-Z, (Z)-(4-((2-aminomethyl-3-fluoroallyl)oxy)phenyl)-(4-phenylpiperidine-1-yl) methanone trifluoroacetate] | – | 9.7 ± 0.9 nM |
| NC/C(=C\F)COc1ccc(C(=O)N2CCc3ccccc3C2)cc1 [TM45-E, (E)-(4-((2-aminomethyl-3-fluoroallyl)oxy)phenyl)-(3,4-di hydroisoquinoline-2 (1H)-yl)methanone trifluoroacetate] | > 10 µM | 2.4 ± 0.7 nM |
| NC/C(=C/F)COc1ccc(C(=O)N2CCc3ccccc3C2)cc1 [TM45-Z, (Z)-(4-((2-aminomethyl-3-fluoroallyl)oxy)phenyl)-(3,4-dihydroiso-quinoline-2(1H)-yl)methanone trifluoroacetate] | > 10 µM | 1.1 ± 0.1 nM |
| NCC(=CF)COc1ccc(C(=O)N2CCC(c3ccccc3)CC2)cc1F [TM48, (4-((2-aminomethyl-3-fluoroallyl)oxy)-3-fluorophenyl)-(4-phenylpiperidin-1-yl)methanone trifluoroacetate] | – | 6.5 ± 0.5 nM |
| NC/C(=C\F)COc1ccc(C(=O)N2CCC(c3ccccc3)CC2)cc1F [TM48-E, (E)-(4-((2-(aminomethyl)-3-fluoroally)oxy)-3-fluorophenyl)-(4-phenylpiperidin-1-yl)methanone trifluoroacetate] | – | 9.2 ± 1.1 nM |
| NC/C(=C/F)COc1ccc(C(=O)N2CCC(c3ccccc3)CC2)cc1F [TM48-Z, (Z)-(4-((2-(aminomethyl)-3-fluoroallyl)oxy)-3-fluorophenyl)-(4-phenylpiperidin-1-yl)methanone trifluoroacetate] | – | 10.6 ± 1.4 nM |
| CN(C)c1cccc(NC(=O)c2ccc(OCC(=CF)CN)cc2)c1 [TM62, N-(3-dimethylaminophenyl)-4-(2-aminomethyl-3-fluoroallyloxy)-benzamide trifluoroacetate] | > 30 µM | 1.8 ± 0.2 nM |
| NC/C(=C\F)COc1ccc(C(=O)N[C@H]2CCCc3ccccc32)cc1 [TM63-E, (E)-(S)-N-(1,2,3,4-tetrahydro-1-naphthyl)-4-(2-aminomethyl-3-fluoroallyl)oxy)-benzamide trifluoroacetate] | > 10 µM | 5.7 ± 0.8 nM |
| NC/C(=C\F)COc1ccc(C(=O)Nc2ccc(F)cc2)cc1Cl [TM65-E, (E)-N-(4-fluorophenyl)-4-((2-aminomethyl-3-fluoroallyl)oxy)-3-chloro-benzamide trifluoroacetate] | – | 4.1 ± 0.7 nM |
| NC/C(=C/F)COc1ccc(C(=O)Nc2ccc(F)cc2)cc1Cl [TM65-Z, (Z)-N-(4-fluorophenyl)-4-((2-aminomethyl-3-fluoroallyl)oxy)-3-chloro-benzamide trifluoroacetate] | – | 1.7 ± 0.3 nM |
| NCC(=CF)COc1ccc(C(=O)N2CCc3cc(C(F)(F)F)ccc3C2)cc1 [TM68, (4-(2-aminomethyl-3-fluoroallyloxy)phenyl)-(6-trifluoromethyl-3,4-dihydroisoquinol-2(1H)-yl)-methanone trifluoroacetate] | – | 9.9 ± 1.8 nM |
| NCC(=CF)COc1ccc(C(=O)N2CCc3ccccc3[C@@H]2c2ccccc2)cc1 [TM69, (S)-(4-(2-aminomethyl)-3-fluoroallyloxy)phenyl)-(1-phenyl-3,4-dihydroisoquinol-2(1H)-yl)-methanone trifluoroacetate] | – | 10.4 ± 1.4 nM |
| NCC(=CF)COc1ccc(C(=O)N2Cc3ccc(Cl)cc3C2)cc1 [TM71, (4-(2-aminomethyl-3-fluoroallyloxy)phenyl)-(5-chloroisoindolin-2-yl)-methanone trifluoroacetate] | – | 2.4 ± 0.2 nM |
| NCC(=CF)COc1ccc(C(=O)N2CCc3ccccc3C2)cc1F [TM72, (4-((2-aminomethyl-3-fluoroallyl)oxy)-3-fluorophenyl)-(3,4-tetrahydroisoquinoline-2(1H)-yl)methanone trifluoroacetate] | – | 3.4 ± 0.5 nM |
| NC/C(=C\F)COc1ccc(C(=O)N2CCc3c(Cl)cccc3C2)cc1F [TM73-E, (E)-(4-((2-aminomethyl-3-fluoroallyl)oxy)-3-fluorophenyl)-(5-chloro-3,4-di-hydroisoquinoline-2(1H)-yl)methanone trifluoroacetate] | – | 4.2 ± 0.3 nM |
| NC/C(=C/F)COc1ccc(C(=O)N2CCc3c(Cl)cccc3C2)cc1F [TM73-Z, (Z)-(4-((2-aminomethyl-3-fluoroallyl)oxy)-3-fluorophenyl)-(5-chloro-3,4-di-hydroisoquinoline-2(1H)-yl)methanone trifluoroacetate] | – | 3.7 ± 0.3 nM |
| NC/C(=C\F)COc1ccc(-c2nc3ccc(Cl)cc3s2)cc1F [TM74-E, (E)-2-(4-(6-chloro-benzothiazol-2-yl)-2-fluorophenoxymethyl)-3-fluoroallylamine trifluoroacetate trifluoroacetate] | – | 3.2 ± 0.2 nM |
| NC/C(=C/F)COc1ccc(-c2nc3ccc(Cl)cc3s2)cc1F [TM74-Z, (Z)-2-(4-(6-chloro-benzothiazol-2-yl)-2-fluorophenoxymethyl)-3-fluoroallylamine trifluoroacetate trifluoroacetate] | – | 5.3 ± 0.2 nM |
